According to patent US11752154B2, “Pharmaceutical compositions comprising sepiapterin and uses thereof” (PTC Therapeutics MP, Inc., priority 2017, dated 2023):

How the values were obtained:
[1] = Determination of BH4 and sepiapterin levels in plasma, liver, kidney and urine after sepiapterin or BH4 (Example 4); assay type: in vivo; conditions: for kidney, liver and urine exposure to BH4 versus dose level: 20, 60 or 180 mg/kg
Experimental: Animals were administered the test items, sepiapterin or BH4, at dose levels of 20, 60 or 180 mg/kg. Blood, liver, kidney and urine samples (where possible) were collected from 3 animals/timepoints/group on the day of dosing at 0 (pre-dose, controls only), 0.5, 1, 2, 4, and 8 hours post-dose. Samples were assayed for sepiapterin or BH4 (not quantified in plasma) and non-compartmental pharmacokinetic analysis was performed.

[2] = Stability analysis of salts and/or co-crystals of sepiapterin (Example 7); assay type: physicochemical; conditions: 25° C./60% RH and 40° C./75% RH, two weeks
Experimental: The stability of the prepared salts and/or co-crystals was analyzed after […] at 25° C. and 60% relative humidity and 40° C. and 75% relative humidity. […] None of the phosphate, tartrate, or nicotinate salts and/or co-crystals underwent a form change during the stability testing, and each of them retained greater than 97% purity over the two weeks of the study. In fact, both the tartrate and nicotinate both retained greater than 99% purity.

[3] = Kinetic solubility and disproportionation of sepiapterin salts and/or co-crystals in water and Medisca Oral Mix (Example 8); assay type: physicochemical; conditions: for Solubility / Form change / Purity (area %) / solubility at 1 hr / solubility at 4 hr / solubility at 24 hr: RT; for Solubility / solubility at 1 hr / solubility at 4 hr / solubility at 24 hr: calculated using freebase, target conc. ~7 mg/mL; for Form change: residual solids by XRPD; for Purity (area %): supernatant, for reference only; for form of residual solids: water and Medisca Oral Mix, after 1 hour; for solubility at 1 hr / solubility at 4 hr / solubility at 24 hr: thermodynamic from solid
Experimental: The kinetic solubility was evaluated for nicotinate, phosphate, L-tartrate, and fumarate salts and/or co-crystals of sepiapterin in water and Medisca Oral Mix. X-ray powder diffraction (XRPD) was performed for the residual solids to identify form change/disproportionation. Solids were suspended into the media with target conc. of ˜7 mg/mL (calculated by freebase). The suspensions were agitated on a rolling incubator at 25 rpm for 1, 4 and 24 hrs. At each time point, 1 mL of the suspension was pipetted out for centrifugation at 10000 rpm (2 min) and filtration through 0.45 μm membrane to obtain supernatant for HPLC solubility and pH tests, the residual solids were analyzed by XRPD.

[4] = Medisca Oral Mix, 1 hr, listed as L-tartrate salt and/or co-crystal
[5] = Water, 1 hr, listed as L-tartrate salt and/or co-crystal
[6] = Water, 4 hr, listed as L-tartrate salt and/or co-crystal
[7] = Water, 24 hr, listed as L-tartrate salt and/or co-crystal
[8] = Medisca Oral Mix, 24 hr, listed as phosphate salt and/or co-crystal
[9] = Water, 1 hr, listed as phosphate salt and/or co-crystal
[10] = Water, 4 hr, listed as phosphate salt and/or co-crystal
[11] = Water, 24 hr, listed as phosphate salt and/or co-crystal

C[C@H](O)[C@H](O)[C@H]1CNc2nc(N)[nH]c(=O)c2N1 [BH4, tetrahydrobiopterin, reference compound]
kidney, liver and urine exposure to BH4 versus dose level [1]: decreased as the dose level increased

C[C@H](O)C(=O)C1=Nc2c(nc(N)[nH]c2=O)NC1 [L-Tartrate]
form change during the stability testing [2]: None
Solubility [3, 4]: 2000 µg/mL
Solubility [3, 5]: 1600 µg/mL
Solubility [3, 6]: 1800 µg/mL
Solubility [3, 7]: 1800 µg/mL
Form change ([3]; Medisca Oral Mix, 1 hr, ** = low crystallinity, listed as L-tartrate salt and/or co-crystal): Yes
Form change ([3]; Medisca Oral Mix, 4 hr, ** = low crystallinity, listed as L-tartrate salt and/or co-crystal): Yes
Form change ([3]; Medisca Oral Mix, 24 hr, ** = low crystallinity, listed as L-tartrate salt and/or co-crystal): Yes
Form change [3, 5]: Yes
Form change [3, 6]: Yes
Form change [3, 7]: Yes
Purity (area %) [3, 4]: 99.68 area %
Purity (area %) ([3]; Medisca Oral Mix, 4 hr, listed as L-tartrate salt and/or co-crystal): 99.54 area %
Purity (area %) ([3]; Medisca Oral Mix, 24 hr, listed as L-tartrate salt and/or co-crystal): 95.67 area %
Purity (area %) [3, 5]: 99.34 area %
Purity (area %) [3, 6]: 99.07 area %
Purity (area %) [3, 7]: 95.61 area %
form of residual solids [3]: converted to freebase

C[C@H](O)C(=O)C1=Nc2c(nc(N)[nH]c2=O)NC1 [Nicotinate]
form change during the stability testing [2]: None
solubility at 1 hr ([3]; Medisca Oral Mix, aqueous with cosolvent or surfactant or cyclodextrin, 1 hr): 2600 µg/mL
solubility at 4 hr ([3]; Medisca Oral Mix, aqueous with cosolvent or surfactant or cyclodextrin, 4 hr): 3100 µg/mL
solubility at 24 hr ([3]; Medisca Oral Mix, aqueous with cosolvent or surfactant or cyclodextrin, 24 hr): 3500 µg/mL
Form change ([3]; Medisca Oral Mix, 1 hr, ** = low crystallinity, listed as nicotinate salt and/or co-crystal): Yes
Form change ([3]; Medisca Oral Mix, 4 hr, ** = low crystallinity, listed as nicotinate salt and/or co-crystal): Yes
Form change ([3]; Medisca Oral Mix, 24 hr, ** = low crystallinity, listed as nicotinate salt and/or co-crystal): Yes
Form change ([3]; Water, 1 hr, listed as nicotinate salt and/or co-crystal): Yes
Form change ([3]; Water, 4 hr, listed as nicotinate salt and/or co-crystal): Yes
Form change ([3]; Water, 24 hr, listed as nicotinate salt and/or co-crystal): Yes
form of residual solids [3]: converted to freebase
solubility at 1 hr ([3]; water, 1 hr): 1500 µg/mL
solubility at 4 hr ([3]; water, 4 hr): 2300 µg/mL
solubility at 24 hr ([3]; water, 24 hr): 1800 µg/mL

C[C@H](O)C(=O)C1=Nc2c(nc(N)[nH]c2=O)NC1 [Phosphate]
form change during the stability testing [2]: None
Solubility [3, 8]: 2100 µg/mL
Solubility [3, 9]: 1700 µg/mL
Solubility [3, 10]: 2000 µg/mL
Solubility [3, 11]: 1900 µg/mL
Form change ([3]; Medisca Oral Mix, 1 hr, ** = low crystallinity, listed as phosphate salt and/or co-crystal): Yes**
Form change ([3]; Medisca Oral Mix, 4 hr, ** = low crystallinity, listed as phosphate salt and/or co-crystal): Yes**
Form change ([3]; Medisca Oral Mix, 24 hr, ** = low crystallinity, listed as phosphate salt and/or co-crystal): Yes**
Form change [3, 9]: Yes
Form change [3, 10]: Yes
Form change [3, 11]: Yes
Purity (area %) ([3]; Medisca Oral Mix, 1 hr, listed as phosphate salt and/or co-crystal): 99.23 area %
Purity (area %) ([3]; Medisca Oral Mix, 4 hr, listed as phosphate salt and/or co-crystal): 98.95 area %
Purity (area %) [3, 8]: 87.63 area %
Purity (area %) [3, 9]: 89.92 area %
Purity (area %) [3, 10]: 89.52 area %
Purity (area %) [3, 11]: 82.64 area %
form of residual solids [3]: converted to freebase

C[C@H](O)C(=O)C1=Nc2c(nc(N)[nH]c2=O)NC1 [sepiapterin]
kidney, liver and urine exposure to BH4 versus dose level [1]: decreased as the dose level increased
kidney BH4 Cmax following sepiapterin administration versus BH4 alone ([1]; except at the high-dose): similar
secondary peak of absorption (plasma sepiapterin) ([1]; low- and mid-dose levels, post-dose): 8 h
sepiapterin exposure amongst the analyzed matrices ([1]; plasma, liver, kidney, urine): highest in urine
dose proportionality of circulating sepiapterin exposure ([1]; plasma, entire dose range): much greater than dose proportional
time of maximum sepiapterin plasma concentrations ([1]; post-dose, sepiapterin 20, 60 or 180 mg/kg): 30 minutes or 2 hours
sepiapterin detected in the liver and kidney ([1]; sepiapterin 20, 60 or 180 mg/kg): only at 30 minutes post-dose and only in the liver for the mid- or high-dose
dose proportionality of sepiapterin exposure ([1]; urine, liver and kidney, entire dose range): less than dose proportional
